Laboratory results reported in ChEMBL document CHEMBL3507680, “University of Dundee, Gates Library screen for HepG2 cell viability”.

Experiment: Human HepG2 cell viability assay in 384 well format
Type: toxicity, cell-based
Set-up: dose 125 nL, time 70.5 hour; concentration not given beside the values
Settings: HepG2 cells, read-out: Inhibition

SMILES	cytotoxicity at 70.5 h
CC(CNC(=O)c1ccc(F)cc1I)N1CCCC1 (centres undefined)	22%
CCCNC(=O)C[C@@H]1CCN(C(=O)c2cccnc2)C[C@@H]1CC	12.5%
COC1(CNC(=O)CCCc2ccccc2)CCSC1 (centres undefined)	-0.238%
O=C1NCCO[C@H]2CN(C(=O)CCc3ccccc3Cl)CC[C@@H]12	22.6%
CCN(CC)CCCNCc1cc2cc(C)cc(C)c2[nH]c1=O	3.4%
O=C(O)C1CCCN1c1nc(C2CC2)cc(C(F)(F)F)n1 (centres undefined)	2.63%
CC(C)(C)C(=O)Cn1nc(C2CC2)cc(C(F)(F)F)c1=O	-0.663%
CN(C)S(=O)(=O)N1CC[C@]2(O)CCN(Cc3cccc(F)c3)C[C@@H]2C1	-6.74%
CCOc1ccc(-n2nnc(C(=O)O)c2-c2ccncc2)cc1	12.9%
O=C(c1ccccc1)N1CC[C@H]2C[C@H](c3nnc(C4CC4)o3)O[C@@H]2C1	-9.97%
O=C(NCC(=O)N1CCC2(CC1)OCCO2)c1ccoc1	-7.96%
CC(C)n1cnnc1CN(C)C(=O)c1ccc[nH]1	18.8%
OC1(Cn2ccc3ncccc32)CCN(Cc2cccs2)CC1	-0.455%
CN(C)c1nc(O)cc(C2CCN(C(=O)Cc3ccccn3)C2)n1 (centres undefined)	1.91%
CCCN1CCC(Cc2noc(-c3cccnc3OC)n2)CC1	2.25%
CCc1ncc2c(n1)CN(c1nccc(C3CCCC3)n1)C2	-10.9%
CC(C(=O)NCC(C)(C)c1ccc2c(c1)OCO2)n1ccnc1 (centres undefined)	-1.09%
CCCn1[nH]c(CNc2cccc(Cl)c2)nc1=O	-15.4%
CN(Cc1cnn(C)c1)S(=O)(=O)N1CCCCCC1	-9.53%
COc1ccc(F)cc1C(=O)N1CCCC(CNS(C)(=O)=O)C1 (centres undefined)	1.51%
CS(=O)(=O)NC1CCCN(C(=O)NCc2cccc(F)c2)C1 (centres undefined)	-4.51%
Cc1cccc(C)c1OCC(=O)NC(C)c1nnc2n1CCC2 (centres undefined)	-7.81%
CC(=O)N1CCCN(Cc2csc(-c3ncccn3)n2)CC1	-7.01%

SMILES	cytotoxicity at 70.5 h
Cn1ncc2cnn(CC(O)COc3cccc4[nH]ccc34)c2c1=O (centres undefined)	39.5%
CN1C[C@@H](N)C[C@H]1c1nc(-c2ccc3c(c2)OCO3)no1	-1.52%
Cc1n[nH]c(C2CN(CCc3cccs3)CCO2)n1 (centres undefined)	14.5%
CCOc1ccc(CC(CNC(=O)c2ccc(C)s2)C(N)=O)cc1 (centres undefined)	4.65%
C=Cn1ncc(CN2C[C@@H]3CCCN3C[C@@H]2Cc2ccccc2)c1C	-2.66%
CCSCC(C)NCc1nc(-c2cccnc2)no1 (centres undefined)	19.3%
Cc1cnc2c(S(=O)(=O)NCC3CCOC3)cccc2c1 (centres undefined)	-10.2%
CS(=O)(=O)N1CCCCCC1c1cc(-c2ccc(F)cc2)no1 (centres undefined)	5.67%
CC(C)n1c(=O)c2ccccc2n(CCCN(C)C)c1=O	-12.5%
CC1CCC(NC(=O)CNC2(c3cccc(Br)c3)CCOCC2)CC1 (centres undefined)	9.26%
CN(C)Cc1nnc(C2CCN(c3nccc(N)n3)CC2)n1C1CC1	2.16%
COCCN(Cc1ccc(F)cc1Cl)C(=O)c1csnn1	-2.37%
CC(C)COCCNC1CCN(c2ccccn2)CC1	0.205%
CCc1cc(N(C)CCCO)n2nccc2n1	-4.76%
CCNc1ncc(C(=O)N[C@@H](C)[C@H](O)c2ccccc2)cn1	-2.67%
Clc1ccccc1CN1CCc2nc(C3CCCCN3)ncc2C1 (centres undefined)	-18.6%
CC(C)Nc1nc2c(cc1C(=O)O)CCN(Cc1ccsc1)CC2	-6.73%
O=C(COc1ccc2c(c1)CCC2)NCc1ccco1	23.9%
CCc1c(C(=O)NC2CCS(=O)(=O)C2)cnn1-c1ccc(F)cc1 (centres undefined)	-22.6%
COCCCC(=O)N1CCC(Nc2cccnn2)CC1	-10.4%
c1cc(CN2CCC(c3ccnc4nccn34)C2)ccn1 (centres undefined)	-1.62%
CCOc1cc(CN(C)CCC(=O)OC)ccc1OC(F)F	-2.34%
O=C(CCc1cn[nH]c1)N1C[C@@H](CN2CCOCC2)C[C@H](CO)C1	8.69%

SMILES	cytotoxicity at 70.5 h
CCOc1ccc(Br)cc1C1CCCCN1 (centres undefined)	-12.6%
Cc1cccc(CN2CC3C[C@]3(NC(=O)c3ccoc3)C2)n1 (some centres undefined)	-12.4%
CN1C(=O)C2(CCN(S(C)(=O)=O)CC2)c2cc(F)ccc21	-3.04%
CC(C)C(=O)N1CCOC2(COCCN(c3ncccn3)C2)C1 (centres undefined)	-11.8%
Clc1ccc(OCCN2CCN(CCn3cncn3)CC2)cc1	13.2%
CC(CC(=O)NCCCn1cccn1)c1cccnc1 (centres undefined)	-6.56%
c1cnc(N2CCOCC3(CN(Cc4nccs4)CCO3)C2)nc1 (centres undefined)	-2.26%
CC(C)NC(=O)[C@@H]1CN(Cc2nccs2)C[C@H]2OCC[C@H]21	36%
O=C(c1ccc2cccc(F)c2n1)N1CCN(CCn2cncn2)CC1	-9.3%
CCOc1ccnc(N2CCN(C(=O)c3cc(Cl)c[nH]3)CC2)n1	25.8%
Cn1ccc(C(=O)NC2CCC23CCN(Cc2nccs2)CC3)c1 (centres undefined)	-4.21%
Cc1nn(C)c(Cl)c1CN1CCN(c2nccs2)C(C)C1 (centres undefined)	2.61%
CC1c2ncc(Cn3cccn3)n2CCN1Cc1ccccn1 (centres undefined)	-1.75%
CC(C)[C@H](NC(=O)NC1CCS(=O)(=O)C1)C(=O)NCc1cccnc1 (some centres undefined)	6.1%
O=C1CCNc2ccc(F)cc2CN1Cc1ccccc1	2.31%
CC(C)C(=O)N1CCC2(CC1)NC(=O)c1ccccc12	-2.39%
CC(C)c1noc(CN2CCN(C(=O)c3cccnc3O)CC2)n1	-3.73%
CC(C)c1noc(CCC(=O)N2CCSCC2)n1	-18.8%
CNc1ncc(CN(C)Cc2cc(O)c3cc(C)cc(C)c3n2)cn1	-15.9%
CN(C)CC1(O)CCCN(c2nc(-c3ccccc3)no2)CC1 (centres undefined)	-7.51%
CC(C)c1ccc(C(=O)N2CCOCC2CC(=O)c2ccco2)cn1 (centres undefined)	-5.67%
CC(C)(C)Nc1c(C2CCN(C(=O)C(C)(C)C)CC2)nc2ccccn12	-4.87%
CC(=O)Nc1nc(C2CCN(C(=O)Cc3ccccc3)CC2)cs1	-5.09%

SMILES	cytotoxicity at 70.5 h
COc1coc(CN2CCCC3(CCC(=O)N(CC4CC4)C3)C2)cc1=O (centres undefined)	-8.43%
Cc1nn(C)c(C)c1-c1ccc(=O)n(C(C)C(=O)NC2CCCC2)n1 (centres undefined)	-5.55%
O=C1OC2(CCN(C3CCCOC3)CC2)CN1CCc1ccccc1 (centres undefined)	5.31%
Clc1ccccc1CNC(Cn1cncn1)c1ccccc1 (centres undefined)	14.7%
CCCn1c(N2CCCCC2)nc2c(C)nn(C)c2c1=O	15.3%
O=C(c1cn(-c2cccc(Cl)c2F)nn1)N1CCCSCC1	-13.2%
Cc1cc(C(=O)NS(=O)(=O)Cc2ccon2)c(C)o1	-3.93%
CN1CCN(C(=O)[C@@H]2CC[C@@H]3[C@@H](CCN3c3ncccn3)O2)CC1	-7.39%
Cc1ncc(-c2ccccn2)c(CCNC(=O)CCC2CCCO2)n1 (centres undefined)	3.67%
CC(=O)N(Cc1ncc(C(C)C)o1)C1CCN(Cc2cc(C)no2)C1 (centres undefined)	-4.1%
Cn1ccnc1CN1CCC2(CC(=O)N(c3cccc(F)c3)C2)C1 (centres undefined)	-4.42%
COc1cccc(CNc2cccnc2-n2cccn2)c1OC	-14.7%
COc1cccc(C(C)Nc2ncnc3c2NC(=O)CN3)c1 (centres undefined)	11%
FC(F)Oc1ccc(CN2CCOC3(CCOCC3)C2)cc1Cl	1.46%
C=Cn1cc(CN2CCc3nc(-c4cccnc4)nc(O)c3C2)c(C)n1	-3.49%
Cc1cnn(C2CCCN(C(=O)c3cc(-c4ccccc4C)n[nH]3)C2)c1 (centres undefined)	9.61%
CC(C)CN1CC2(CCN(C(=O)C(O)c3ccccc3Cl)CC2)CC1=O (centres undefined)	-5.68%
CC(C)N(C)C(=O)C1CCC(=O)N(CCc2cccc(F)c2)C1 (centres undefined)	-3.96%
NC(=O)CN1CCCN(C(=O)Cc2ccc3c(c2)OCCO3)CC1	-11%
O=C(CCCN1CCCCC1)NC(C(=O)O)c1ccc(Cl)cc1 (centres undefined)	-5.87%
Cc1n[nH]c(C)c1NC(=O)CN(CC(O)c1ccc(F)cc1)C1CC1 (centres undefined)	-3.36%
Cc1ccc(-c2nc(CNC(C)Cn3cccn3)cs2)o1 (centres undefined)	-3.26%
CCCc1c(C(=O)N2CCN(Cc3ccccn3)CC2)cnn1C	-14.7%

SMILES	cytotoxicity at 70.5 h
Cc1cnccc1N1CCCN(Cc2ccc(-c3cc[nH]n3)o2)CC1	-5.27%
CCOCCCNC(=O)C(C)n1cc(Br)cn1 (centres undefined)	1.42%
Cn1c(CN2CCN(c3cccnc3)CC2)cc2ccccc21	-4.28%
Cc1cc(C(=O)Nc2cnn(CC(F)(F)F)c2)nc(N(C)C)n1	-1.64%
COc1cncc(N2CCN(Cc3ccncc3Cl)CC2)n1	-9.33%
O=C(c1cn(Cc2ccc(Cl)cc2)nn1)N1CCCO1	-10.9%
CC1CCN(C(=O)[C@@H]2C[C@@H]3CCN(CC4CCOCC4)C[C@@H]3O2)CC1	-7.26%
COc1ccccc1CNC(=O)N1CCN(Cc2cc(C)on2)CC1	-2.55%
COc1ccnc(N2CCN(C(=O)c3ccn(C)c(=O)c3)CC2)n1	-1.1%
O=C(c1cccs1)N1C[C@@H]2OCCN(CC3CCCO3)[C@@H]2C1 (some centres undefined)	1.09%
CCC1CN(Cc2c(O)ccc3oc4c(c23)CCCC4)CCO1 (centres undefined)	8.92%
NC(=O)C1CN(c2ccc(F)cc2)CCN1 (centres undefined)	-2.98%
Cc1ncsc1C(=O)N(Cc1cccnc1)C1CC1	3.01%
N#CCCN(C(=O)CCc1cccnc1)c1ccc2c(c1)OCCO2	-11.1%
Cc1c(C(=O)O)nnn1Cc1cccc(C(F)(F)F)c1	-12.7%
CS(=O)(=O)N1CCN(c2cc(-n3cccc3)ncn2)CC1	-4.46%
Cc1ncn(CCNC(=O)Nc2ccccc2)c(=O)c1C	21.4%
COCCNC(=O)N1CCN(C(=O)Cc2ccccc2F)CC1	-8.11%
CN(C)Cc1ccc(C(N)=O)cc1NC(=O)c1cccc(C#N)c1	-4.53%
COCCN1CCC2(CC1)CN(C(=O)c1ccccc1)CCO2	-5.3%
CC(C)NC(=O)c1nnn(-c2cccc(F)c2)c1C1CC1	-6.18%
COCCC(=O)N1Cc2ccccc2OC2(CCOCC2)C1	-0.482%
